Source: patent US20260234165A1, “MACROCYCLIC COMPOUNDS, PREPARATION METHOD THEREFOR, AND USE THEREOF” (GENFLEET THERAPEUTICS (SHANGHAI) INC., priority 2004, published 2026)
pIC50: −log10 of the molar value. Where a name gives a salt, the structure may show the parent alone. Read-outs that look alike come from different tables or passages of the source.

Legend:
Type in all cases: cell-based, human
[1] = tested on: NCI-H441 cells; test: 3D cell proliferation assay (CellTiter Glo-3D), NCI-H441; settings: medium with 2% FBS, read-out: H441 AP IC50
How it was run: (§1)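 Luminescence read-out (CellTiter-Glo 3D) after 5-day compound exposure at 37 °C, 5% CO2. Cells: NCI-H441 and AsPC-1, 800/well, RPMI-1640 + 2% FBS, 0.1% DMSO final. IC50 by four-parameter fit of % inhibition against log concentration.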

[2] = tested on: p-ERK in AsPC-1 cells (KRAS G12D mutation); test: Cell p-ERK assay (HTRF) in AsPC-1 cells; settings: for pIC50: AsPC-1 cells, 3 h compound incubation, HTRF p-ERK T202/Y204, read-out: AsPC-1 p-ERK IC50; for IC50: read-out: AsPC-1 p-ERK IC50(nM)
How it was run: (§2)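 AsPC-1 (10000/well) or NCI-H441 (20000/well) cells were seeded in RPMI-1640 with 10% FBS, grown overnight, then exposed to 3.16-fold compound dilutions (0.1% DMSO) for 3 h at 37 °C. Lysates were read for phospho-ERK T202/Y204 by HTRF; IC50 came from four-parameter fits of inhibition versus DMSO and blank wells.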

[3] = tested on: p-ERK in NCI-H441 cells (KRAS G12V mutation); test: Cell p-ERK assay (HTRF) in NCI-H441 cells; settings: for pIC50: NCI-H441 cells, 3 h compound incubation, HTRF p-ERK T202/Y204, read-out: H441 p-ERK IC50; for IC50: read-out: H441 p-ERK IC50(nM)
How it was run: as §2

[4] = tested on: AsPC-1 cells (KRAS G12D mutation); test: 3D cell proliferation assay (CellTiter Glo-3D), AsPC-1; settings: medium with 2% FBS, read-out: AsPC-1 AP IC50
How it was run: as §1

[5] = Homo sapiens, NCI-H441, 3D cell proliferation (CellTiter Glo-3D)
[6] = Homo sapiens, ASPC1, 3D cell proliferation (CellTiter Glo-3D)
[7] = Homo sapiens, 3D cell proliferation (CellTiter Glo-3D)
[8] = 3D cell proliferation (CellTiter Glo-3D)

Compound	pIC50 [1, 5]	pIC50 ([2]; Homo sapiens, ASPC1, 3 h)	pIC50 ([3]; Homo sapiens, NCI-H441, 3 h)	pIC50 [4, 6]	pIC50 [1, 8]	pIC50 [2]	pIC50 [3]	pIC50 [4, 8]	pIC50 [1, 7]	IC50 ([2]; Homo sapiens, ASPC1, 3 h) [nM]	IC50 ([3]; Homo sapiens, NCI-H441, 3 h) [nM]
CCn1c(-c2cc(C#CCN3CCC(O)(c4cccc[n+]4[O-])CC3)cnc2[C@H](C)OC)c2c3cc(ccc31)-c1csc(n1)C[C@H](NC(=O)[C@H]1[C@H](C)[C@@H]1C)C(=O)N1CCC[C@H](N1)C(=O)OCC(C)(C)C2 (atropisomer, axis not shown; (Ra)) [Compound Z1047, 2-(1-(3-(5-((6^3S,4S,Z)-4-((1r,2R,3S)-2,3-dimethylcyclopropane-1-carboxamido)-1^1-ethyl-10,10-dimethyl-5,7-dioxo-6^1,6^2,6^3,6^4,6^5,6^6-hexahydro-1^1H-8-oxa-2(4,2)-thiazola-1(5,3)-indola-6(1,3)-pyridazinacycloundecaphane-1^2-yl)-(Ra)-6-((S)-1-methoxyethyl)pyridin-3-yl)prop-2-yn-1-yl)-4-hydroxypiperidin-4-yl)pyridine-1-oxide formate]				9.43					9.62	0.24	0.22
CCn1c(-c2cc(C#CCN3CCC(Nc4ccccc4P(C)(C)=O)CC3)cnc2[C@H](C)OC)c2c3cc(ccc31)-c1csc(n1)C[C@H](NC(=O)[C@H]1[C@H](C)[C@@H]1C)C(=O)N1CCC[C@H](N1)C(=O)OCC(C)(C)C2 (atropisomer, axis not shown; (Ra)) [Compound Z1062, (1r,2R,3S)—N-((6^35,4S,Z)-1^2-(5-(3-(4-((2-(dimethylphosphoryl)phenyl)amino)piperidin-1-yl)prop-1-yn-1-yl)-(Ra)-2-((S)-1-methoxyethyl)pyridin-3-yl)-1^1-ethyl-10,10-dimethyl-5,7-dioxo-6^1,6^2,6^3,6^4,6^5,6^6-hexahydro-1^1H-8-oxa-2(4,2)-thiazola-1(5,3)-indola-6(1,3)-pyridazinacycloundecaphane-4-yl)-2,3-dimethylcyclopropane-1-carboxamide]	8.89	9.09	9.28	9.03							
COCCn1c(-c2cc(C#CCN(C)C[Si](C)(C)C)cnc2[C@H](C)OC)c2c3cc(ccc31)-c1csc(n1)C[C@H](NC(=O)[C@H]1[C@@H]3COC[C@@H]31)C(=O)N1CCC[C@H](N1)C(=O)OCC(C)(C)C2 (atropisomer, axis not shown; (Ra)) [Compound Z1091, (1R,5S,6r)-N-((6^3S,4S,Z)-1^1-(2-methoxyethyl)-1^2-(Ra)-(2-((S)-1-methoxyethyl)-5-(3-(methyl((trimethylsilyl)methyl)amino)prop-1-yn-1-yl)pyridin-3-yl)-10,10-dimethyl-5,7-dioxo-6^1,6^2,6^3,6^4,6^5,6^6-hexahydro-1^1H-8-oxa-2(4,2)-thiazola-1(5,3)-indola-6(1,3)-pyridazinacycloundecaphane-4-yl)-3-oxabicyclo[3.1.0]hexane-6-carboxamide]				8.78					8.70	2.34	1.92
CCn1c(-c2cc(OCCN3CCOCC34CC4)cnc2[C@H](C)OC)c2c3cc(ccc31)-c1csc(n1)C[C@H](NC(=O)[C@H]1C[C@@H]1C(F)F)C(=O)N1CCC[C@H](N1)C(=O)OCC1(CC1)C2 (relative stereo) [Compound Z557, (1S,2S)—N-((3′S,4′S,Z)—(Ra)-2′-(5-(2-(7-oxa-4-azaspiro[2,5]octan-4-yl)ethoxy)-2-((S)-1-methoxyethyl)pyridin-3-yl)-1′-ethyl-5′,7′-dioxospiro[cyclopropane-1,10′-8-oxa-2(4,2)-thiazola-1(5,3)-indola-6(1,3)-pyridazinacycloundecaphan]-4′-yl)-2-trans-(difluoromethyl)cyclopropane-1-carboxamide]					8.12	7.68	8.25	7.79			
CCn1c(-c2cc(N3CCN(C)CC3)cnc2[C@H](C)OC)c2c3cc(ccc31)-c1csc(n1)C[C@H](NC(=O)C(C)(C)F)C(=O)N1CCC[C@H](N1)C(=O)OCC(C)(C)C2 (single isomer, unassigned) [Compound Z5]					7.91	8.55	8.37	7.71			
CCn1c(-c2cc([C@@H]3CCN4CCOC[C@@H]4C3)cnc2[C@H](C)OC)c2c3cc(ccc31)-c1csc(n1)C[C@H](NC(=O)[C@H]1[C@H](C)[C@@H]1C)C(=O)N1CCC[C@H](N1)C(=O)OCC1(CC1)C2 (single isomer, unassigned) [Compound Z77]	8.31	7.86	8.13	7.76							

The next lines start with results.

pIC50 [1, 5]	pIC50 ([2]; Homo sapiens, ASPC1, 3 h)	pIC50 ([3]; Homo sapiens, NCI-H441, 3 h)	pIC50 [4, 6]	pIC50 [1, 8]	pIC50 [2]	pIC50 [3]	pIC50 [4, 8]	Compound	pIC50 [1, 7]	IC50 ([2]; Homo sapiens, ASPC1, 3 h) [nM]	IC50 ([3]; Homo sapiens, NCI-H441, 3 h) [nM]
9.04	9.13	9.17	8.83					CCn1c(-c2cc(C#CCN3CCC3)cnc2[C@H](C)OC)c2c3cc(ccc31)-c1csc(n1)C[C@H](NC(=O)[C@H]1[C@@H]3COC[C@@H]31)C(=O)N1CCC[C@H](N1)C(=O)OCC(C)(C)C2 (atropisomer, axis not shown; (Ra)) [Compound Z1031, (1R,5S,6r)-N-((6^3S,4S,Z)-1^2-(5-(3-(azetidin-1-yl)prop-1-yn-1-yl)-(Ra)-2-((S)-1-methoxyethyl)pyridin-3-yl)-1^1-ethyl-10,10-dimethyl-5,7-dioxo-6^1,6^2,6^3,6^4,6^5,6^6-hexahydro-1^1H-8-oxa-2(4,2)-thiazola-1(5,3)-indola-6(1,3)-pyridazinacycloundecaphane-4-yl)-3-oxabicyclo[3,1,0]hexane-6-carboxamide]			
8.09	8.12	8.66	7.68					CCn1c(-c2cc(C#CCN3CCCOCC3)cnc2[C@H](C)OC)c2c3cc(ccc31)-c1csc(n1)C[C@H](NP1(=O)CC(C)=C(C)C1)C(=O)N1CCC[C@H](N1)C(=O)OCC(C)(C)C2 (atropisomer, axis not shown; (Ra)) [Compound Z1032, (6^3S,4S,Z)—(Ra)-1^2-(5-(3-(1,4-oxazepan-4-yl)prop-1-yn-1-yl)-2-((S)-1-methoxyethyl)pyridin-3-yl)-4-((3,4-dimethyl-1-oxido-2,5-dihydrophosphol-1-yl)amino)-1^1-ethyl-10,10-dimethyl-6^1,6^2,6^3,6^4,6^5,6^6-hexahydro-1^1H-8-oxa-2(4,2)-thiazola-1(5,3)-indola-6(1,3)-pyridazinacycloundecaphane-5,7-dione]			
9.43	9.54	9.57	9.49					CCn1c(-c2cc(OCCN3CCOC4(CC4)C3)cnc2[C@H](C)OC)c2c3cc(ccc31)-c1csc(n1)C[C@H](NC(=O)[C@H]1[C@H](C)[C@@H]1C)C(=O)N1CCC[C@H](N1)C(=O)OCC(C)(C)C2 (atropisomer, axis not shown; (Sa)) [Compound Z551, (1r,2R,3S)—N-((6^3R,4R,Z)—(Sa)-1^2-(5-(2-(4-oxa-7-azaspiro[2,5]octan-7-yl)ethoxy)-2-((S)-1-methoxyethyl)-3-ylpyridin)-1^1-ethyl-10,10-dimethyl-5,7-dioxo-6^1,6^2,6^3,6^4,6^5,6^6-hexahydro-1^1H-8-oxa-2(4,2)-thiazola-1(5,3)-indola-6(1,3)-pyridazinacycloundecaphane-4-yl)-2,3-dimethylcyclopropane-1-carboxamide]			
				7.74	7.87	7.95	7.52	CCn1c(-c2cc(C#CCN3CCC3)cnc2[C@H](C)OC)c2c3cc(ccc31)-c1csc(n1)C[C@H](NC(=O)[C@H]1[C@H](C)[C@@H]1C)C(=O)N1CCC[C@H](N1)C(=O)OCC(C)(C)C2 (atropisomer, axis not shown; (Sa)) [Compound Z555, (1r,2R,3S)—N-((6^3S,4S,Z)—(Sa)-1^2-(5-(3-(azetidin-1-yl)prop-1-yn-1-yl)-2-((S)-1-methoxyethyl)pyridin-3-yl)-1^1-ethyl-10,10-dimethyl-5,7-dioxo-6^1,6^2,6^3,6^4,6^5,6^6-hexahydro-1^1H-8-oxa-2(4,2)-thiazola-1(5,3)-indola-6(1,3)-pyridazinacycloundecaphane-4-yl)-2,3-dimethylcyclopropane-1-carboxamide]			
9.15	9.17	9.47	9.10					CCn1c(-c2cc(C#CC(C)N3CCC3)cnc2[C@H](C)OC)c2c3cc(ccc31)-c1csc(n1)C[C@H](NC(=O)[C@H]1[C@H](C)[C@@H]1C)C(=O)N1CCC[C@H](N1)C(=O)OCC(C)(C)C2 (atropisomer, axis not shown; (Sa)) [Compound Z613-2, (1r,2R,3S)—N-((6^3S,4S,Z)-12-(5-(3-(azetidin-1-yl)but-1-yn-1-yl)-(Sa)-2-((S)-1-methoxyethyl)pyridin-3-yl)-4′-ethyl-10,10-dimethyl-5,7-dioxo-6^1,6^2,6^3,6^4,6^5,6^6-hexahydro-1^1H-8-oxa-2(4,2)-thiazola-(5,3)-indola-6(1,3)-pyridazinacycloundecaphane-4-yl)-2.3-dimethylcyclopropane-1-carboxamide]			
